In patent US7659277B2, “Ubiquitin ligase inhibitors and methods related thereto” (Proteologies, Ltd., priority 2003, dated 2010):
Where two headings read alike, the source gives them in different places.

Experiments:
[1] = molecular target: T1, POSH (Homo sapiens, UniProt Q7Z6J0); assay: Selectivity (% A in 1 μM), ubiquitin ligase activity of POSH; type: biochemical; conditions: read-out: Selectivity (% A* in 1 μM) POSH
T1 construct: GST-POSH lot NB81/p.118 3.6 mg/ml; fused on or other part: GST tag, used for detection with anti-GST XL665
T1 sequence (Q7Z6J0 1-269 limits assumed): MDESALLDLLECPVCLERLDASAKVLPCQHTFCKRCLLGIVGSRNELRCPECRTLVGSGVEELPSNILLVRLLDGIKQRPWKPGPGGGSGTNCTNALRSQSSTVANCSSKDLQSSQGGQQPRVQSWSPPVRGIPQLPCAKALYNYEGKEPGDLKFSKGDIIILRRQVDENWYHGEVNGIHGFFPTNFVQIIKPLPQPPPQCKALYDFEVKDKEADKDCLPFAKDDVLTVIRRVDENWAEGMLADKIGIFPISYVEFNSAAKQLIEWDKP
Method: Experimental Protocols: 1. HTS Screening Assay Procedure • Microplates 10109D to 10114D compounds at 1 mM. • (Controls in column 1). • All compounds were perchase from ChemBridge corporation: ChemBridge corporation 16981 Via Tazon, Suite G San Diego, Calif. 92127 a. Microplates Labeling • Put labels to 6 PS U-bottom clear microplate. • Put labels to 18 black microplates (triplicats). b. Microplates Preparation • Put 100 μl GST-POSH at 33 nM in wells of the clear PS U-bottom microplates (exept wells A1-D1). • Negative control: place 100 μl dH2O in wells A1-D1. • (Positive control: place 100 μl GST-POSH at 33 nM in wells E1-H1). • Put 8 μl enzymes solution ×4 to black microplates (column 1 to 11). c. Incubation of E3 with Compounds • Transfer 5 μl of compounds (at 1 mM) to the microplates containing 100 μl GST-POSH. • Add 5 μl of DMSO to controls column 1. • Incubation 30 minutes at RT. d. […] 2. […] Microplates Labeling • Put labels to 4 clear PP clear microplate (18.2 μM, 9.1 uM, 1.82 uM, 910 nM,). • Put labels to 5 clear PS U-bottom clear microplate 4.44 μM, 909, 444, 91 and 44 nM) • Put labels to 15 black microplates (triplicates). f. Original Microplate Dilutions • Put DMSO 40 μl to (18.2 μM, 1.82 uM plates) and 20 ul to (9.1 uM, 910 nM plates. • Mix by pipetation the original microplate (3× up and down 45 μl). • Transfer 10 μl of compounds from the original microplate (at 91 μM) to the next microplate (=18.2 μM) on splitting apparatus. • Mix by pipetation the 18.2 uM microplate (3× up and down 45 μl). • Transfer 20 μl of compounds from the 18.2 uM microplate to the next microplate (=9.1 μM) on splitting apparatus. • Mix by pipetation the 9.1 uM microplate (3× up and down 45 μl). • Transfer 10 μl of compounds from the 9.1 uM microplate to the next microplate (=1.82 μM) on splitting apparatus. • Mix by pipetation the 1.82 uM microplate (3× up and down 45 μl). • Transfer 20 μl of compounds from the 1.82 uM microplate to the next microplate (=910 nM) on splitting apparatus • Mix by pipetation. g. Microplates Preparation • Put 123 μl GST-POSH at 33 nM in wells of the 5 clear PS U-bottom clear microplates. • Positive control: place 123 μl GST-POSH at 33 nM in well A12-h12 13 μl DMSO. • Negative control: place 123 μl dH2O in well B1 and 13 μl DMSO. • Put 8 μl enzymes solution ×4 to 15 black microplates. • Controls: put 8 μl enzymes solution ×4 to wells A1 to F1. h. Incubation of POSH with Compounds • Take 7 μl of compounds at original plate (91 μM) and put into the 4.44 μM labeled microplate containing 123 μl GST-POSH, on splitting apparatus. • Mix by pipetation (3× up and down 115 μl), note time. • Take 7 μl of compounds at 18.2 μM and put into the 910 nM labeled microplate containing 123 μl GST-POSH, on splitting apparatus. • Mix by pipetation (3× up and down 115 μl), note time. • Take 7 μl of compounds at 9.1 μM and put into the 444 nM labeled microplate containing 123 μl GST-POSH, on splitting apparatus. • Mix by pipetation (3× up and down 115 μl), note time. • Take 7 μl of compounds at […] and put into the 91 nM labeled microplate containing 123 μl GST-POSH, on splitting apparatus. • Mix by pipetation (3× up and down 115 μl), note time. • Take 7 μl of compounds at 91.0 nM and put into the 44 nM labeled microplate containing 123 μl GST-POSH, on splitting apparatus. • Mix by pipetation (3× up and down 115 μl), note time. • Incubation 30 minutes at RT. i.

[2] = tested on: HIV-1; assay: HIV maturation (budding) in virus-like particle assay, HIV-1 p24 antigen ELISA; type: cell-based; conditions: Human immunodeficiency virus 1, read-out: Budding (3 μM)
Description: Compounds were further assessed for effects on maturation of HIV particles in a virus-like particle assay.

[3] = molecular target: c-cbl (Homo sapiens, UniProt P22681); assay: Selectivity (% A in 1 μM), ubiquitin ligase activity of c-cbl; type: biochemical; conditions: % activity at 1 μM compound; control is related to 100% activity; HTS protocol
[4] = tested on: E2 protein; type: biochemical; conditions: % activity at 1 μM compound; control is related to 100% activity; HTS protocol
[5] = % activity at 1 μM compound, control is related to 100% activity, HTS protocol

CN1C(=O)/C(=C\c2ccc(-c3cccc([N+](=O)[O-])c3)o2)SC1=S [Compound 115]
remaining activity at 1 µM [1]: 8%
activity at 3 µM [2]: 48%

O=c1nc(-c2ccc(Br)cc2)cc(-c2ccc([N+](=O)[O-])cc2)[nH]1 [Compound 84]
remaining activity at 1 µM [1]: 67%
activity at 3 µM [2]: 47%

Cc1ccc(/N=C/c2cc(Br)cc(Br)c2O)c(C)c1 [Compound 54]
remaining activity at 1 µM [1]: 30%
activity at 3 µM [2]: 54%

S=C(c1ccc(-c2cc(Cl)ccc2Cl)o1)N1CCCCC1 [Compound 35]
remaining activity at 1 µM [1]: 44%
activity at 3 µM [2]: 56%

O=[N+]([O-])c1ccc(CN2CCN(c3cccc(Cl)c3)CC2)o1 [Compound 80]
remaining activity at 1 µM [1]: 50%
activity at 3 µM [2]: 55%

O=C1S/C(=C/c2ccc(-c3ccc([N+](=O)[O-])cc3Cl)o2)C(=O)N1c1ccccc1 [Compound 27]
remaining activity at 1 µM [1]: 6%
activity at 3 µM [2]: 48%

CN(C)c1ccc(/C=C2\SC(=S)N(C3CCS(=O)(=O)C3)C2=O)cc1 (stereo not drawn) [Compound 110]
remaining activity at 1 µM [1]: 94%
activity at 3 µM [2]: 36%

C=CCN1C(=O)NC(=O)/C(=C\c2ccccc2)C1=O [Compound 2]
remaining activity at 1 µM [1]: 50%
activity at 3 µM [2]: 66%

Cc1c(C(=O)/C=C/c2cccs2)c2cc(O)ccc2n1C [Compound 76]
remaining activity at 1 µM [1]: 35%
activity at 3 µM [2]: 48%

OCc1cccc(/N=C/c2cccc(O)c2O)c1 [Compound 57]
remaining activity at 1 µM [1]: 20%
activity at 3 µM [2]: 61%

O=C1C=CC(=O)N1c1ccc(OC(F)(F)C(F)F)c(N2C(=O)C=CC2=O)c1 [Compound 20]
remaining activity at 1 µM [1]: 33%
activity at 3 µM [2]: 60%

Cc1ccc2nsnc2c1/N=C/c1c(O)ccc2ccccc12 [Compound 53]
remaining activity at 1 µM [1]: 12%
activity at 3 µM [2]: 64%

Cc1cc([N+](=O)[O-])ccc1/N=C/c1ccc[nH]1 [Compound 70]
remaining activity at 1 µM [1]: 151%
activity at 3 µM [2]: 57%

O=C(O)c1ccc(-c2ccc(/C=c3\sc4nc5ccccc5n4c3=O)o2)cc1 [Compound 28]
remaining activity at 1 µM [1]: 26%
activity at 3 µM [2]: 54%

O=C1C(=Cc2ccc(-c3ccc(Br)cc3)o2)C(=O)c2ccccc21 [Compound 38]
remaining activity at 1 µM [1]: 17%
activity at 3 µM [2]: 38%

CCCCOc1ccc(NC(=S)N2CCn3c4c(c(=O)c5cc(C)ccc53)CCC42)cc1 (stereo not drawn) [Compound 81]
remaining activity at 1 µM [1]: 3%
activity at 3 µM [2]: 63%

CN(C)c1ccc(/C=C2\C(=O)N(c3ccc([N+](=O)[O-])cc3)N=C2N2CCOCC2)cc1 [Compound 42]
remaining activity at 1 µM [1]: 138%
activity at 3 µM [2]: 51%

N=C1NC(=O)/C(=C\c2ccc(-c3ccc(I)cc3)o2)S1 [Compound 29]
remaining activity at 1 µM [1]: 42%
activity at 3 µM [2]: 63%

Cc1c(C(=O)/C=C/c2ccccc2)c2cc(O)ccc2n1C [Compound 75]
remaining activity at 1 µM [1]: 103%
activity at 3 µM [2]: 39%

O=C1NC(=O)C(=Cc2ccc(-c3cc(Cl)ccc3Cl)o2)C(=O)N1 [Compound 1]
remaining activity at 1 µM [1]: 19%
activity at 3 µM [2]: 46%

Cc1ccc(/N=C/c2cccc(O)c2O)cc1C [Compound 56]
remaining activity at 1 µM [1]: 27%
activity at 3 µM [2]: 59%

C=CCN1C(=O)/C(=C/c2c3ccccc3cc3ccccc23)SC1=S [Compound 109]
remaining activity at 1 µM [1]: 67%
activity at 3 µM [2]: 60%

O=C1C=CC(=O)N1c1ccc(Cl)cc1 [Compound 19]
remaining activity at 1 µM [1]: 39%
activity at 3 µM [2]: 52%

O=[N+]([O-])c1ccc2c(c1)Cc1cc(/N=C/c3ccc(Br)cc3)ccc1-2 [Compound 67]
remaining activity at 1 µM [3]: 92%
remaining activity at 1 µM [1, 5]: 103%
Selectivity (% A* in 1 μM) E2 [4]: 98%

N/N=C\c1ccc(-c2cccs2)s1 [Compound 37]
remaining activity at 1 µM [3]: 93%
remaining activity at 1 µM [1, 5]: 41%
Selectivity (% A* in 1 μM) E2 [4]: 97%

Oc1c(Br)cc(Br)cc1/C=N/c1ccc(Br)cn1 [Compound 61]
remaining activity at 1 µM [3]: 133%
remaining activity at 1 µM [1, 5]: 35%
Selectivity (% A* in 1 μM) E2 [4]: 52%

O=C(C(Cl)Cl)N1CCN(c2ccc([N+](=O)[O-])cc2)CC1 [Compound 79]
remaining activity at 1 µM [3]: 89%
remaining activity at 1 µM [1, 5]: 120%
Selectivity (% A* in 1 μM) E2 [4]: 55%

COc1ccc(N2C(=O)NC(=O)/C(=C\C=C\c3ccccc3)C2=O)cc1 [Compound 8]
remaining activity at 1 µM [1]: 9%
activity at 3 µM [2]: 67%

CCCCCCOc1ccc(C=C2C(=O)NC(=S)NC2=O)cc1 [Compound 15]
remaining activity at 1 µM [1]: 14%
activity at 3 µM [2]: 52%

O=c1/c(=C/c2ccc(N3CCOCC3)cc2)sc2nc3ccccc3n12 [Compound 32]
remaining activity at 1 µM [1]: 66%
activity at 3 µM [2]: 67%

O=[N+]([O-])c1ccc(-c2ccc(/N=C/c3c(O)ccc4ccccc34)cc2)cc1 [Compound 60]
remaining activity at 1 µM [3]: 110%
remaining activity at 1 µM [1, 5]: 22%
Selectivity (% A* in 1 μM) E2 [4]: 53%

O=C1\C(=C/C=C/C=C/Nc2ccccc2)SC(=S)N1c1ccccc1 [Compound 24]
remaining activity at 1 µM [3]: 90%
remaining activity at 1 µM [1, 5]: 7%
Selectivity (% A* in 1 μM) E2 [4]: 87%

COc1ccc(/C=N/c2ccc(Nc3ccccc3)cc2)c2ccccc12 [Compound 55]
remaining activity at 1 µM [1]: 40%
activity at 3 µM [2]: 55%

Oc1c(Br)cc(Cl)cc1/C=N/c1ccccc1Br [Compound 58]
remaining activity at 1 µM [3]: 115%
remaining activity at 1 µM [1, 5]: 40%
Selectivity (% A* in 1 μM) E2 [4]: 108%

CC(=C\c1ccccc1)/C=C1/SC(=N)NC1=O [Compound 31]
remaining activity at 1 µM [3]: 108%
remaining activity at 1 µM [1, 5]: 105%
Selectivity (% A* in 1 μM) E2 [4]: 104%

COc1ccc(NC(=O)c2cc3cccc(N)c3cc2O)cc1 [Compound 114]
remaining activity at 1 µM [1]: 31%
activity at 3 µM [2]: 46%

Oc1ccc(/N=C/c2cccs2)cc1-c1nc2ccccc2s1 [Compound 71]
remaining activity at 1 µM [3]: 84%
remaining activity at 1 µM [1, 5]: 9%
Selectivity (% A* in 1 μM) E2 [4]: 86%

CC(C)(C)c1ccc(O)c(/N=C/C=C/c2cccc([N+](=O)[O-])c2)c1 [Compound 59]
remaining activity at 1 µM [1]: 26%
activity at 3 µM [2]: 61%

O=c1nc(C(F)(F)F)cc(/C=C/c2ccc(-c3ccc(Br)cc3)o2)[nH]1 [Compound 39]
remaining activity at 1 µM [3]: 132%
remaining activity at 1 µM [1, 5]: 29%
Selectivity (% A* in 1 μM) E2 [4]: 98%

O=C1C=CC(=O)N1c1ccccc1Cl [Compound 18]
remaining activity at 1 µM [1]: 24%
activity at 3 µM [2]: 41%
